Results from a compilation of properties of binary mixtures (doi:10.1021/acs.jpcc.9b06000).

Assay: xn = mol fraction of the nth substance listed
Conditions: 101 kPa

FC1CC(F)(F)C(F)(F)C1(F)F (centres undefined) + CCCC[N+]1(C)CCCC1.FC(F)(F)C(F)(F)[P-](F)(F)(F)(C(F)(F)C(F)(F)F)C(F)(F)C(F)(F)F
Conditions | electrical conductivity [S/m] | viscosity [mPa·s]
298.1 K, x2 = 0.035 | 0.402 | –
298.1 K, x2 = 0.077 | 0.514 | –
298.1 K, x2 = 0.122 | 0.605 | –
298.1 K, x2 = 0.127 | – | 3.91
298.1 K, x2 = 0.18 | 0.678 | –
298.1 K, x2 = 0.248 | 0.569 | –
298.1 K, x2 = 0.334 | 0.489 | –
298.1 K, x2 = 0.437 | 0.351 | –
298.1 K, x2 = 0.656 | – | 54.8
298.1 K, x2 = 0.841 | – | 112.6
303 K, x2 = 0.035 | 0.428 | –
303 K, x2 = 0.077 | 0.554 | –
303 K, x2 = 0.08 | – | 2.72
303 K, x2 = 0.122 | 0.656 | –
303 K, x2 = 0.248 | 0.638 | –
303 K, x2 = 0.331 | 0.572 | –
303 K, x2 = 0.338 | – | 11.23
303 K, x2 = 0.653 | 0.33 | –
303 K, x2 = 0.659 | – | 45
308.1 K, x2 = 0.032 | 0.453 | –
308.1 K, x2 = 0.08 | – | 2.37
308.1 K, x2 = 0.125 | 0.717 | –
308.1 K, x2 = 0.183 | 0.812 | –
308.1 K, x2 = 0.248 | 0.703 | –
308.1 K, x2 = 0.331 | 0.641 | –
308.1 K, x2 = 0.437 | 0.478 | 15.23
308.1 K, x2 = 0.656 | 0.38 | 37
308.1 K, x2 = 0.839 | 0.254 | –
308.1 K, x2 = 0.844 | – | 68.1
313 K, x2 = 0 | – | 1.28
313 K, x2 = 0.035 | 0.482 | –
313 K, x2 = 0.077 | 0.638 | –
313 K, x2 = 0.122 | 0.772 | –
313 K, x2 = 0.251 | 0.764 | –
313 K, x2 = 0.334 | 0.714 | –
313 K, x2 = 0.338 | – | 8.03
313 K, x2 = 0.437 | 0.54 | –
313 K, x2 = 0.653 | 0.449 | –
313 K, x2 = 0.655 | – | 28.8
313 K, x2 = 0.839 | 0.297 | –
313 K, x2 = 0.841 | – | 54.5
318.1 K, x2 = 0.08 | – | 1.95
318.1 K, x2 = 0.125 | 0.83 | –
318.1 K, x2 = 0.183 | 0.949 | –
318.1 K, x2 = 0.248 | 0.826 | –
318.1 K, x2 = 0.338 | 0.786 | –
318.1 K, x2 = 0.431 | 0.609 | –
318.1 K, x2 = 0.653 | 0.511 | –
318.1 K, x2 = 0.84 | – | 44.8
323 K, x2 = 0 | – | 1.08
323 K, x2 = 0.039 | 0.543 | –
323 K, x2 = 0.077 | 0.75 | –
323 K, x2 = 0.122 | 0.906 | –
323 K, x2 = 0.183 | 1.04 | 3.12
323 K, x2 = 0.248 | 0.899 | –
323 K, x2 = 0.331 | 0.851 | –
323 K, x2 = 0.335 | – | 6.61
323 K, x2 = 0.434 | 0.703 | –
323 K, x2 = 0.653 | 0.591 | –
323 K, x2 = 0.839 | 0.417 | –
323 K, x2 = 0.84 | – | 36.8
